Data taken from patent US20240218399A1, “LIPID COMPOUNDS AND LIPID NANOPARTICLE COMPOSITIONS” (SUZHOU ABOGEN BIOSCIENCES CO., LTD., priority 2021, published 2024).

Columns and labels:
female ICR mice = test: In vivo hEPO mRNA expression, serum hEPO after tail vein injection; details: 0.5 mg/kg tail vein; for in vivo mRNA expression of sphingomyelin-containing LNP compared to corresponding DSPC control formulation: FIG. 9; for hEPO protein expression level in mice among formulations of Table 6.7: FIG. 7, sphingomyelin of different tail length
Procedure: Lipid nanoparticles encapsulating human erythropoietin (hEPO) mRNA were prepared as described above, and systemically administered to 6-8 week old female ICR mice (Xipuer-Bikai, Shanghai) at 0.5 mg/kg dose by tail vein injection. Mice were euthanized by CO2 overdoses at 6 hours post administration, and blood samples were taken for hEPO measurement. Particularly, serum were separated from total blood by centrifugation at 5000 g for 10 minutes at 4° C., snap-frozen and stored at −80° C. for analysis. The serum hEPO level was measured using an ELSA assay carried out using a commercial kit (DEP00, R&D systems) according to manufacturer's instructions. The hEPO expression levels (μg/ml) measured from the tested group are plotted in FIG. 4, showing the mean value and standard deviation (SD) of at least five repeated experiments (test animals) for each group.
(§1) Each LNP formulation was systemically administered to 6-8 week old female ICR mice (Xipuer-Bikai, Shanghai) at 0.5 mg/kg dose by tail vein injection, and blood samples were taken for hEPO measurement as described herein. The hEPO expression levels (μg/ml) measured from the tested group are plotted in FIG. 6, showing the mean value and standard deviation (SD) of at least five repeated experiments (test animals) for each group.
as §1, with “7,” for “6,”
as §1, with “9,” for “6,”, “group. As shown, for each of the tested cationic lipids, the average in vivo expression level of mRNA was higher for the sphingomyelin containing composition as compared to the corresponding control formulation containing an equivalent amount of DSPC instead of sphingomyelin.” for “group.”

Hela cells = test: In vitro GFP mRNA expression from LNP formulations; type: cell-based; details: for in vitro GFP expression of LNP formulated using sphingomyelin with this cationic lipid: FIG. 3C
Procedure: (§2) Lipid nanoparticles encapsulating green fluorescent protein (GFP) mRNA were prepared as described above. Hela cell line was seeded in a 96-well plate. LNP formulation was mixed with 10 μg/mL ApoE at 1:1 (v/v) ratio, then added to the cells at 200 ng/well or 400 ng/well concentrations, and incubated for 36 to 48 hours. GFP intensity was measured with […] following manufacturer's instructions, and fluorescence intensity (relative light units; RLU) of different groups were plotted in FIG. 3A to 3C, showing the mean value and standard deviation (SD) of at least five repeated experiments for each group.
as §2, with “Hela” for “Lipid nanoparticles encapsulating green fluorescent protein (GFP) mRNA were prepared as described above. Hela”, “ratio at 37° C. for 15 min,” for “ratio,”, “at” for “at 200 ng/well or”, “8,” for “3A to 3C,”, “three” for “five”

CCCCCCCCC(CCCCCC)C(=O)OCCCCCCN(CCCCO)CCCCCCOC(=O)C(CCCCCC)CCCCCCCC (stereo not drawn) [ALC-0315, reference compound]
in vivo mRNA expression of sphingomyelin-containing LNP compared to corresponding DSPC control formulation (female ICR mice): significantly higher

CCCCCCCCC(CCCCCC)COC(=O)CCCCCN(CCCCCC(=O)OCC(CCCCCC)CCCCCCCC)CCN(CCO)C1CCC1 (stereo not drawn) [Formulation C1]
in vitro GFP expression of LNP formulated using sphingomyelin with this cationic lipid (Hela cells): enhanced in vitro GFP expression
in vivo mRNA expression of sphingomyelin-containing LNP compared to corresponding DSPC control formulation (female ICR mice): significantly higher

CCCCCCCCC(CCCCCCCC)CNC(=O)CCCCCN(CCO)CCN(CCCCCC(=O)OCC(CCCCCCCC)CCCCCCCC)C1CCC1 [Formulation C3]
in vitro mRNA expression of sphingomyelin-containing LNP compared to corresponding DSPC control formulation (Hela cells; GFP mRNA, 400 ng/well, FIG. 8): significantly higher

CCCCCCCC(=O)OCC(CCCCN(CCCCCO)CCCCC(COC(=O)CCCCCCC)COC(=O)CCCCCCC)COC(=O)CCCCCCC [Formulation C14]
in vivo mRNA expression of sphingomyelin-containing LNP compared to corresponding DSPC control formulation (female ICR mice): significantly higher

CCCCC/C=C\C/C=C\CCCCCCCC(=O)OCCCCCCN(CCO)CCCCC(COC(=O)CCCCCCC)COC(=O)CCCCCCC [Formulation C16]
in vivo mRNA expression of sphingomyelin-containing LNP compared to corresponding DSPC control formulation (female ICR mice): significantly higher

CCCCCCCCCOC(=O)CCCCCCCN(CCO)CCCCCCCC(=O)OC(CCCCCCCC)CCCCCCCC [Lipid 5, reference compound]
in vitro GFP expression of LNP formulated using sphingomyelin with this cationic lipid (Hela cells): enhanced in vitro GFP expression

CCCCCCCCCCCCC/C=C/[C@@H](O)[C@H](COP(=O)([O-])OCC[N+](C)(C)C)NC(=O)CCCCCCCCCCCCC [SM-02, 14:0(d18:1/14:0)]
hEPO protein expression level in mice among formulations of Table 6.7 (female ICR mice): highest protein expression level

CCCCCCCCCCCCC/C=C/[C@@H](O)[C@H](COP(=O)([O-])OCC[N+](C)(C)C)NC(=O)CCCCCCCCCCCCCCC [SM-03, 16:0(d18:1/16:0)]
hEPO protein expression level in mice among formulations of Table 6.7 (female ICR mice): highest protein expression level
